How the values were obtained:
[1] = test system: Contig12574_at, Putative lipoxygenase; test: GEP, barley DNA chip, probe set 1.11; format: in vivo; set-up: fold induction: dose or concentration left out as unconfirmed; conditions: for fold induction / fold induction at 150 g/ha: Hordeum vulgare, read-out: Expression value, 1.11 Contig12574_at; for fold induction: rates of Table 1 (S7 500); for fold induction at 150 g/ha: 6 h
Experimental: (§1) Barley plants (cv. Baronesse) were grown in compost-filled pots (diameter: 10 cm) for 10 days in a controlled-environment cabinet under defined light, humidity and temperature conditions (white light, 70% atmospheric humidity, 24° C.). At the time of spray application, the seedlings were approximately 15 cm in size. The test substances selected in this example were molecules which differ markedly in their structure and which have a well documented pronounced safener effect, and other molecules which are known from the literature to have an effect on plant stress and pathogen tolerance (Table 1). The substances were prepared as stock solutions in DMSO (dimethyl sulfoxide) at c=10 mg/ml). This was used for preparing dilutions in water supplemented with 0.2% Agrotin (comprises polyvinyl alcohol, silicones, polysaccharides and pH regulators, manufacturer: Bayer CropScience AG, Monheim, Germany), as wetter, to give the application rates shown in the table. The amount of liquid for the spray application was 800 μl per pot, corresponding to 800 l/ha. For each 800 μl of spray mixture, 16 μl of EC premix: diacetone alcohol=1:6 were additionally added as formulation auxiliaries. The substances listed in Table 1 were applied to the leaves by means of a pneumatic spray pistol. Each substance was sprayed as 2 dosages, and all experiments were carried out as replicates (2 pots per substance). Sprayings with blank formulation without active ingredient were carried out as controls. After 6 hours, the leaves were harvested, frozen in liquid nitrogen and stored at −80° C. until further use. The labeled RNA probes for the DNA chip hybridization were prepared as described in the protocols (Expression Analysis, Technical Manual) from Affymetrix (Affymetrix Inc., 3380 Central Expressway, Santa Clara, Calif., USA). First, total RNA was isolated from in each case 500 mg of the harvested leaves. In each case 10 μg of total RNA was used for the first-strand and second-strand cDNA synthesis. The cDNA was amplified with T7 polymerase and simultaneously labeled with biotin-UTP. In each case, 20 μg of this biotinylated cDNA was employed for the hybridization of the barley genome array (Gene Chip Barleyl, order No.: 511012) from Affymetrix. This DNA microarray comprises DNA sequences of 22 840 genes which are composed of a total of 400 000 EST sequences. Thereafter, the DNA microarrays were washed in the Affymetrix Fluidics Station, stained with streptavidin/phycoerythrin (Molecular Probes, P/N S-866) and scanned with the matching Agilent Laser Scanner (Agilent Gene Array Scanner). The fluorescent data obtained were analyzed with the software Microarray Suite 5 from Affymetrix. After the quality had been checked, all DNA chip analyses were stored in a database. To determine the relative expression values for genes (induction factors, repression factors), test and control chips were compared with each other, and the scoring function set by the Affymetrix software was used as the basis. The 2 biological replications of one experiment were compared in each case with 2 control chips (blank formulation), and the 4 expression values obtained for each gene were used for calculating the median. These medians are shown in the results tables as induction factors. Similarity comparisons of expression profiles from different experiments and cluster analyses were carried out using the software GeneMaths 1.5 from Applied Maths (Applied Maths, Keistraat 120, 9830 Sint-Martens-Latem, Belgium).
(§2) Gene groups from specific metabolic pathways and signal transduction chains were put together by key word search in the annotations, of the genes, which were also provided by Affymetrix, and by Blast analyses (homology comparisons) of the DNA target sequences, i.e. of the positive sequence (identified on the basis of a modified expression profile) identified on the DNA chip, using gene sequences from other organisms, preferably plant organisms, with characterized functions. […]

[2] = test system: Contig10030_at, Putative lipase homolog; test: GEP, barley DNA chip, probe set 1.13; format: in vivo; set-up: fold induction: dose or concentration left out as unconfirmed; conditions: for fold induction / fold induction at 150 g/ha: Hordeum vulgare, topical, read-out: Expression value, 1.13 Contig10030_at; for fold induction: rates of Table 1 (S7 500); for fold induction at 150 g/ha: 6 h
Experimental: as §1, §2

[3] = test system: Contig3096_s_at, Allene oxide synthase; test: GEP, barley DNA chip, probe set 1.16; format: in vivo; set-up: fold induction: dose or concentration left out as unconfirmed; conditions: for fold induction / fold induction at 150 g/ha: Hordeum vulgare, topical, read-out: Expression value, 1.16 Contig3096_s_at; for fold induction: rates of Table 1 (S7 500); for fold induction at 150 g/ha: 6 h
Experimental: as §1, §2

[4] = test system: Contig13413_at, Similar to lipases; test: GEP, barley DNA chip, probe set 1.17; format: in vivo; set-up: fold induction: dose or concentration left out as unconfirmed; conditions: for fold induction / fold induction at 150 g/ha: Hordeum vulgare, topical, read-out: Expression value, 1.17 Contig13413_at; for fold induction: rates of Table 1 (S7 500); for fold induction at 150 g/ha: 6 h
Experimental: as §1, §2

[5] = test system: Contig5369_at, Pathogen-related protein; test: GEP, barley DNA chip, probe set 4.2; format: in vivo; set-up: fold induction: dose or concentration left out as unconfirmed; conditions: for fold induction / fold induction at 150 g/ha: Hordeum vulgare, topical, read-out: Expression value, 4.2 Contig5369_at; for fold induction: rates of Table 1 (S7 500); for fold induction at 150 g/ha: 6 h
Experimental: as §1, §2

[6] = test system: Contig5023_at, Class III chitinase; test: GEP, barley DNA chip, probe set 5.3; format: in vivo; set-up: fold induction: dose or concentration left out as unconfirmed; conditions: for fold induction / fold induction at 150 g/ha: Hordeum vulgare, topical, read-out: Expression value, 5.3 Contig5023_at; for fold induction: rates of Table 1 (S7 500); for fold induction at 150 g/ha: 6 h
Experimental: as §1, §2

[7] = test system: jasmonic acid biosynthesis; test: GEP, induction pattern of the jasmonic acid biosynthesis genes; format: in vivo, barley; conditions: compared with the other safeners and resistance inductors
Experimental: Barley plants (cv. Baronesse) were grown in compost-filled pots (diameter: 10 cm) for 10 days in a controlled-environment cabinet under defined light, humidity and temperature conditions (white light, 70% atmospheric humidity, 24° C.). At the time of spray application, the seedlings were approximately 15 cm in size. The test substances selected in this example were molecules which differ markedly in their structure and which have a well documented pronounced safener effect, and other molecules which are known from the literature to have an effect on plant stress and pathogen tolerance (Table 1). The substances were prepared as stock solutions in DMSO (dimethyl sulfoxide) at c=10 mg/ml). This was used for preparing dilutions in water supplemented with 0.2% Agrotin (comprises polyvinyl alcohol, silicones, polysaccharides and pH regulators, manufacturer: Bayer CropScience AG, Monheim, Germany), as wetter, to give the application rates shown in the table. The amount of liquid for the spray application was 800 μl per pot, corresponding to 800 l/ha. For each 800 μl of spray mixture, 16 μl of EC premix: diacetone alcohol=1:6 were additionally added as formulation auxiliaries. The substances listed in Table 1 were applied to the leaves by means of a pneumatic spray pistol. […] The fluorescent data obtained were analyzed with the software Microarray Suite 5 from Affymetrix. […]

[8] = test system: Rhopalosiphum padi; test: Repellent effect of safener-treated plants on phytopathogenic insects; format: in vivo; conditions: barley sprayed with 150 g a.i./ha, infested 6 h or 24 h after application, average
Experimental: Barley plants (cv. Baronesse) were grown as described in Example 1 and, after 10 days, treated by spray application with 150 g a.i./ha of isoxadifen-ethyl (S 3) or blank formulation. The experiments were carried out in replications of in each case 10 pots.
6 hours or 24 hours after the substance had been applied, all pots were infested uniformly with a population of the phytopathogenic aphid Rhopalosiphum padi. The experiments were evaluated after 7 days and 14 days by counting the animals on the leaves.

[9] = test system: Jasmonate (JA); test: Jasmonate (JA) concentration in leaves of treated plants, GC-MS/MS; format: in vivo, barley; conditions: 0 hours
[10] = barley leaves 6 h after spray application, median induction factor vs control
[11] = barley leaves 6 h after spray application, rates of Table 1 (150 g a.i./ha, S7 500), median induction factor vs control

Compound | fold induction [1, 10] | fold induction [2, 10] | fold induction [3, 10] | fold induction [4, 10] | fold induction [5, 10] | fold induction [6, 10] | also measured
COC(=O)C1=NN(c2ccc(Cl)cc2Cl)C(C)(C(=O)OC)C1 (centres unmarked) [S1, Mefenpyr-dimethyl] | 0.5 | 1 | 1 | 1 | 2.35 | 9.51 | 
O=C(O)C1=NN(c2ccc(Cl)cc2Cl)C(c2ccc(F)cc2)C1 (centres unmarked) [S2] | 1 | 1 | 1 | 1 | 1 | 3.18 | 
CCOC(=O)C1=NOC(c2ccccc2)(c2ccccc2)C1 [S3, Isoxadifen-ethyl] |  |  |  |  |  |  | fold induction at 150 g/ha [1]: 2.81; fold induction at 150 g/ha [2]: 2.25; fold induction at 150 g/ha [3]: 1; fold induction at 150 g/ha [4]: 1; fold induction at 150 g/ha [5]: 4.76; fold induction at 150 g/ha [6]: 1; Effect on jasmonic acid biosynthesis (induction pattern) [7]: most pronounced; Aphid populations less than the controls ([8]; after 7 days): 50%; Aphid populations less than the controls ([8]; after 14 days): 70%; Jasmonate (JA) concentration ([9]; 30 g a.i/ha): 140 pmol/g leaf tissue; Jasmonate (JA) concentration ([9]; 150 g a.i./ha): 140 pmol/g leaf tissue
CCCCCC(C)OC(=O)COc1ccc(Cl)c2cccnc12 (centres unmarked) [S4, Cloquintocet-mexyl] | 1 | 1 | 1 | 1 | 1 | 1 | 
CCOC(=O)C(Oc1ccc(Cl)c2cccnc12)C(=O)OCC [S5] | 1 | 1 | 1 | 1 | 1 | 2.73 | 
NC(=O)c1ccc(C(F)(F)F)nc1O [S6] | 1 | 1 | 1 | 1 | 1 | 1 | 
O=C(NO)c1ccccc1O [S7, Salicyl hydroxamate] |  |  |  |  |  |  | Expression value, 1.11 Contig12574_at [1, 11]: 1.00 x times; Expression value, 1.13 Contig10030_at [2, 11]: 1.00 x times; Expression value, 1.16 Contig3096_s_at [3, 11]: 2.06 x times; Expression value, 1.17 Contig13413_at [4, 11]: 1.00 x times; Expression value, 4.2 Contig5369_at [5, 11]: 1.00 x times; Expression value, 5.3 Contig5023_at [6, 11]: 1.00 x times
CSC(=O)c1cccc2nnsc12 [S8, Acibenzolar-S-methyl] | 2.11 | 1 | 2.68 | 2.17 | 1 | 1 | 
O=C(O)c1cc(Cl)nc(Cl)c1 [S9] |  |  |  |  |  |  | fold induction at 150 g/ha [1]: 1; fold induction at 150 g/ha [2]: 1; fold induction at 150 g/ha [3]: 1; fold induction at 150 g/ha [4]: 1; fold induction at 150 g/ha [5]: 1; fold induction at 150 g/ha [6]: 4.56
O=C(O)c1cc(Cl)cc(Cl)c1O [S10] | 1 | 1 | 1 | 1 | 1 | 1 | 
